Reference: patent US9163020B2, “Azaindole compounds, synthesis thereof, and methods of using the same” (Global Alliance for TB Drug Development, priority 2013, dated 2015)
Values after ≈ are worked out from the molar mass of the structure shown.

What follows are molecules tested on Mycobacterium tuberculosis (Mtb) H37Rv ATCC 27294 (assay: microbe, parasite or virus in culture). Conditions: Mycobacterium tuberculosis, Table 1; read-out: Mtb MIC.
Format: cell-based

Structure (SMILES) | MIC [µM]
Cc1cnc2c(C(=O)NCCF)cn(Cc3cc(F)c(C)nc3C)c2c1 [Compound 26, 1-((5-fluoro-2,6-dimethylpyridin-3-yl)methyl)-N-(2-fluoroethyl)-6-methyl-1H-pyrrolo[3,2-b]pyridine-3-carboxamide] | 3.12 (≈ 1.12 µg/mL)
COc1ncc(C(F)(F)F)cc1Cn1cc(C(=O)NC[C@H](C)F)c2ncc(C)cc21 [Compound 22, (S)—N-(2-fluoropropyl)-1-((2-methoxy-5-(trifluoromethyl)pyridin-3-yl)methyl)-6-methyl-1H-pyrrolo[3,2-b]pyridine-3-carboxamide] | < 0.391
COc1ncnc(Cn2cc(C(=O)NCCF)c3ncc(Br)cc32)c1C [Compound 20, 6-bromo-N-(2-fluoroethyl)-1-((6-methoxy-5-methylpyrimidin-4-yl)methyl)-1H-pyrrolo[3,2-b]pyridine-3-carboxamide] | 0.781 (≈ 0.33 µg/mL)
Cc1cnc2c(C(=O)NCC(F)F)cn(Cc3ncc(C)nc3C)c2c1 [Compound 46, N-(2,2-difluoroethyl)-1-((3,5-dimethylpyrazin-2-yl)methyl)-6-methyl-1H-pyrrolo[3,2-b]pyridine-3-carboxamide] | < 0.39
COc1cnc2c(C(=O)NCC(F)F)cn(Cc3ncnc(N(C)C)c3C)c2c1 [Compound 40, N-(2,2-Difluoroethyl)-1-((6-(dimethylamino)-5-methylpyrimidin-4-yl)methyl)-6-methoxy-1H-pyrrolo[3,2-b]pyridine-3-carboxamide] | < 0.39
COc1ncc(C#N)cc1Cn1cc(C(=O)NCCF)c2ncccc21 [Compound 14, 1-((5-cyano-2-methoxypyridin-3-yl)methyl)-N-(2-fluoroethyl)-1H-pyrrolo[3,2-b]pyridine-3-carboxamide] | 3.12 (≈ 1.1 µg/mL)
COc1cnc2c(C(=O)NCCO)cn(Cc3ncnc(OC(F)F)c3C)c2c1 [Compound 44, 1-((6-(difluoromethoxy)-5-methylpyrimidin-4-yl)methyl)-N-(2-hydroxyethyl)-6-methoxy-1H-pyrrolo[3,2-b]pyridine-3-carboxamide] | 0.78 (≈ 0.318 µg/mL)
COc1cnc2c(C(=O)NCC(F)F)cn(Cc3ncnc(OC(F)F)c3C)c2c1 [Compound 43, N-(2,2-Difluoroethyl)-1-((6-(difluoromethoxy)-5-methylpyrimidin-4-yl)methyl)-6-methoxy-1H-pyrrolo[3,2-b]pyridine-3-carboxamide] | < 0.39
COc1ncnc(Cn2cc(C(=O)NCCO)c3ncccc32)c1C [Compound 9, N-(2-hydroxyethyl)-1-((6-methoxy-5-methylpyrimidin-4-yl)methyl)-1H-pyrrolo[3,2-b]pyridine-3-carboxamide] | 13.9 (≈ 4.75 µg/mL)
COc1cnc2c(C(=O)NCC(F)F)cn(Cc3ncnc(OC)c3C)c2c1 [Compound 37, N-(2,2-difluoroethyl)-6-methoxy-1-((6-methoxy-5-methylpyrimidin-4-yl)methyl)-1H-pyrrolo[3,2-b]pyridine-3-carboxamide] | < 0.39
COc1nc(C)c(F)cc1Cn1cc(C(=O)NCCF)c2ncccc21 [Compound 18, 1-((5-fluoro-2-methoxy-6-methylpyridin-3-yl)methyl)-N-(2-fluoroethyl)-1H-pyrrolo[3,2-b]pyridine-3-carboxamide] | 0.781 (≈ 0.281 µg/mL)
Cc1cnc2c(C(=O)NCCF)cn(Cc3nccc(OCC(F)(F)F)c3C)c2c1 [Compound 21, N-(2-fluoroethyl)-6-methyl-1-((3-methyl-4-(2,2,2-trifluoroethoxy)pyridin-2-yl)methyl)-1H-pyrrolo[3,2-b]pyridine-3-carboxamide] | 1.56 (≈ 0.662 µg/mL)
CC(c1c(F)cccc1F)n1cc(C(=O)NCCF)c2ncccc21 (stereo not drawn) [Compound 1, 1-(1-(2,6-difluorophenyl)ethyl)-N-(2-fluoroethyl)-1H-pyrrolo[3,2-b]pyridine-3-carboxamide] | 12.5 (≈ 4.34 µg/mL)
Cc1c(OCC(F)(F)F)ccnc1Cn1cc(C(=O)NCCF)c2ncccc21 [Compound 12, N-(2-fluoroethyl)-1-((3-methyl-4-(2,2,2-trifluoroethoxy)pyridin-2-yl)methyl)-1H-pyrrolo[3,2-b]pyridine-3-carboxamide] | 6.25 (≈ 2.56 µg/mL)
COc1cnc2c(C(=O)NCCO)cn(Cc3ncnc(N(C)C)c3C)c2c1 [Compound 41, 1-((6-(Dimethylamino)-5-methylpyrimidin-4-yl)methyl)-N-(2-hydroxyethyl)-6-methoxy-1H-pyrrolo[3,2-b]pyridine-3-carboxamide] | < 0.39
COc1cnc2c(C(=O)NCCF)cn(Cc3ncnc(OC)c3C)c2c1 [Compound 36, N-(2-fluoroethyl)-6-methoxy-1-((6-methoxy-5-methylpyrimidin-4-yl)methyl)-1H-pyrrolo[3,2-b]pyridine-3-carboxamide] | < 0.39
COc1ncnc(Cn2cc(C(=O)NC[C@@H](C)O)c3ncc(C)cc32)c1C [Compound 28, (R)—N-(2-hydroxypropyl)-1-((6-methoxy-5-methylpyrimidin-4-yl)methyl)-6-methyl-1H-pyrrolo[3,2-b]pyridine-3-carboxamide] | 6.25 (≈ 2.31 µg/mL)
COc1cnc2c(C(=O)NCCF)cn(Cc3ncnc(N(C)C)c3C)c2c1 [Compound 39, 1-((6-(Dimethylamino)-5-methylpyrimidin-4-yl)methyl)-N-(2-fluoroethyl)-6-methoxy-1H-pyrrolo[3,2-b]pyridine-3-carboxamide] | < 0.39

Structure (SMILES) | MIC [µM]
COc1ncnc(Cn2cc(C(=O)NCC3CC3)c3ncc(C)cc32)c1C [Compound 10, N-(cyclopropylmethyl)-1-((6-methoxy-5-methylpyrimidin-4-yl)methyl)-6-methyl-1H-pyrrolo[3,2-b]pyridine-3-carboxamide] | 1.56 (≈ 0.57 µg/mL)
COc1ncnc(Cn2cc(NC(=O)CC3CC3)c3ncccc32)c1C [Compound 25, 2-cyclopropyl-N-(1-((6-methoxy-5-methylpyrimidin-4-yl)methyl)-1H-pyrrolo[3,2-b]pyridin-3-yl)acetamide] | 25 (≈ 8.79 µg/mL)
COc1ccc(F)c(F)c1Cn1cc(C(=O)NCCF)c2ncccc21 [Compound 5, 1-(2,3-difluoro-6-methoxybenzyl)-N-(2-fluoroethyl)-1H-pyrrolo[3,2-b]pyridine-3-carboxamide] | < 0.66
Cc1cnc2c(C(=O)NCCO)cn(Cc3ncnc(OC(F)F)c3C)c2c1 [Compound 35, 1-((6-(Difluoromethoxy)-5-methylpyrimidin-4-yl)methyl)-N-(2-hydroxyethyl)-6-methyl-1H-pyrrolo[3,2-b]pyridine-3-carboxamide] | < 0.39
COc1cnc2c(C(=O)NCCF)cn(Cc3ncnc(OC(F)F)c3C)c2c1 [Compound 42, 1-((6-(Difluoromethoxy)-5-methylpyrimidin-4-yl)methyl)-N-(2-fluoroethyl)-6-methoxy-1H-pyrrolo[3,2-b]pyridine-3-carboxamide] | < 0.39
COCCNC(=O)c1cn(Cc2ncnc(OC)c2C)c2cccnc12 [Compound 7, 1-((6-methoxy-5-methylpyrimidin-4-yl)methyl)-N-(2-methyl)-1H-pyrrolo[3,2-b]pyridine-3-carboxamide] | < 1.33
COCCNC(=O)c1cn(Cc2ncnc(OC)c2C)c2cc(C)cnc12 [Compound 11, 1-((6-methoxy-5-methylpyrimidin-4-yl)methyl)-N-(2-methoxyethyl)-6-methyl-1H-pyrrolo[3,2-b]pyridine-3-carboxamide] | 0.781 (≈ 0.289 µg/mL)
COc1ccc(F)cc1Cn1cc(C(=O)NCC2CC2)c2nccc(C)c21 [Compound 2, N-(Cyclopropylmethyl)-1-(5-fluoro-2-methoxybenzyl)-7-methyl-1H-pyrrolo[3,2-b]pyridine-3-carboxamide] | 6.25 (≈ 2.3 µg/mL)
COCCNC(=O)c1cn(Cc2cc(F)cnc2OC)c2cccnc12 [Compound 6] | 1.3 (≈ 0.466 µg/mL)
Cc1cnc2c(C(=O)NCCF)cn(Cc3ncnc(N(C)C)c3C)c2c1 [Compound 29, 1-((6-(dimethylamino)-5-methylpyrimidin-4-yl)methyl)-N-(2-fluoroethyl)-6-methyl-1H-pyrrolo[3,2-b]pyridine-3-carboxamide] | 1.56 (≈ 0.578 µg/mL)
COc1ncnc(Cn2cc(C(=O)NC[C@H](C)F)c3ncc(C)cc32)c1C [Compound 16, (S)—N-(2-fluoropropyl)-1-((6-methoxy-5-methylpyrimidin-4-yl)methyl)-6-methyl-1H-pyrrolo[3,2-b]pyridine-3-carboxamide] | 0.156 (≈ 0.0579 µg/mL)
COc1ncc(F)cc1Cn1cc(C(=O)NCCF)c2ncc(C)cc21 [Compound 15, 1-((5-fluoro-2-methoxypyridin-3-yl)methyl)-N-(2-fluoroethyl)-6-methyl-1H-pyrrolo[3,2-b]pyridine-3-carboxamide] | 1.56 (≈ 0.562 µg/mL)
COc1ncnc(Cn2cc(C(=O)NCCF)c3ncc(F)cc32)c1C [Compound 19, 6-fluoro-N-(2-fluoroethyl)-1-((6-methoxy-5-methylpyrimidin-4-yl)methyl)-1H-pyrrolo[3,2-b]pyridine-3-carboxamide] | 6.25 (≈ 2.26 µg/mL)
COc1ncnc(Cn2cc(C(=O)NCCOC(F)(F)F)c3ncccc32)c1C [Compound 23, 1-((6-methoxy-5-methylpyrimidin-4-yl)methyl)-N-(2-(trifluoromethoxy)ethyl)-1H-pyrrolo[3,2-b]pyridine-3-carboxamide] | 3.12 (≈ 1.28 µg/mL)
Cc1cnc2c(C(=O)NCCO)cn(Cc3nccc(OCC(F)(F)F)c3C)c2c1 [Compound 27, N-(2-hydroxyethyl)-6-methyl-1-((3-methyl-4-(2,2,2-trifluoroethoxy)pyridin-2-yl)methyl)-1H-pyrrolo[3,2-b]pyridine-3-carboxamide] | 3.12 (≈ 1.32 µg/mL)
COc1ncc(F)cc1Cn1cc(C(=O)NC[C@H](C)F)c2ncc(C)cc21 [Compound 24, (S)-1-((5-fluoro-2-methoxypyridin-3-yl)methyl)-N-(2-fluoropropyl)-6-methyl-1H-pyrrolo[3,2-b]pyridine-3-carboxamide] | < 0.391
Cc1cnc2c(C(=O)NCCF)cn(Cc3ncc(C)nc3C)c2c1 [Compound 45, 1-((3,5-dimethylpyrazin-2-yl)methyl)-N-(2-fluoroethyl)-6-methyl-1H-pyrrolo[3,2-b]pyridine-3-carboxamide] | < 0.39

Same assay, conditions: Table 1; read-out: Mtb MIC

Structure (SMILES) | MIC [µM]
COc1ncnc(Cn2cc(C(=O)NCC(F)F)c3ncc(C)cc32)c1C [Compound 33, N-(2,2-difluoroethyl)-1-((6-methoxy-5-methylpyrimidin-4-yl)methyl)-6-methyl-1H-pyrrolo[3,2-b]pyridine-3-carboxamide] | <0.39
